The values below come from patent publication US20240293423A1, “STAT DEGRADERS AND USES THEREOF” (Kymera Therapeutics, Inc., priority 2020, published 2024).

The structures appear in SMILES notation. Where only a bound is given, the exact number is not on record here.

The target of the experiment is T1, STAT3 (Homo sapiens, UniProt P40763).
T1 construct: expressed in transfected cells; host or cells: A549
T1 sequence (P40763 whole entry): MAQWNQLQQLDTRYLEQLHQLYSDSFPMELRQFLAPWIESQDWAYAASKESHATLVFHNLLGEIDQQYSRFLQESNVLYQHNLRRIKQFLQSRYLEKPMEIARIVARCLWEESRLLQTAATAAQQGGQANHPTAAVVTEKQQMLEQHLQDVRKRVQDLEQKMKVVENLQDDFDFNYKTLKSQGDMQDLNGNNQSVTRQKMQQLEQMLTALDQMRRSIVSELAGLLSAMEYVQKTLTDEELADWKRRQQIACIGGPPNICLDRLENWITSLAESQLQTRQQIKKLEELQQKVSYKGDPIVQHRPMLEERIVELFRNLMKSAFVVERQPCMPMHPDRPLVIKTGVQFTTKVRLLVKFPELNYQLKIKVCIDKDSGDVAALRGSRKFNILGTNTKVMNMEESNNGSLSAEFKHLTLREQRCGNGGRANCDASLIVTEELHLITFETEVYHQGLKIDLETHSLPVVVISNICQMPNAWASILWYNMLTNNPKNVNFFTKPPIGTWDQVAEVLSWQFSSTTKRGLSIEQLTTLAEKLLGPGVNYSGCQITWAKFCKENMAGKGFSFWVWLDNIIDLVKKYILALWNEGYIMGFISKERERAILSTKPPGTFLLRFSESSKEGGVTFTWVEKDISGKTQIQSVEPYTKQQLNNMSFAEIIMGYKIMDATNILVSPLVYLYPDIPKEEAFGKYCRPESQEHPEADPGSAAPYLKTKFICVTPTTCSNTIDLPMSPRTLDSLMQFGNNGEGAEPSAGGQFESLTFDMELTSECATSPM
The experiment is described as follows: STAT3 HiBiT degradation assay in transfected A549 cells. The class given is cell-based. The settings on record: 24 h compound incubation, Nano-Glo HiBiT lytic detection, read-out: Cell: STAT3 HiBit A549 degradation 24 h GMean External Abs-DC50. On the procedure:
Compound preparation and Cell seeding: The transfected A549 cells were harvested from dish into cell culture medium and cell numbers counted. Cells were diluted with culture medium to the desired density and 30 μL of cell suspension (about 2000 cells/well) were added into each well of a 384-well cell culture plate as designated and transferred into 37° C. 5% CO2 incubator for 24 h. Compounds were dissolved to 10 mM stock solution and 12 μL of the stock solution was transferred to a 384 LDV-plate. 3 fold, 10-point dilution was performed by transferring 4 μL compound into 8 μL DMSO using a TECAN (EVO200) liquid handler. 30 μL of diluted compound from compound source plate was transferred into the cell plate as designated by using Echo550 and transferred into 37° C. 5% CO2 incubator for 24 h.
Detection: Plates were removed from incubators and equilibrated at room temperature for 15 minutes. Nano-Glo Hibit Lytic Detection reagent (Promega Cat #N3040) was thawed and equilibrated to room temperature before the experiment. 30 μL of Nano-Glo Hibit Lytic Detection reagent was added into each well to be detected. The plates were held at room temperature for 10 min followed by reading on EnSpire.
Data analysis: The remaining activity was calculated following the formula: Remaining Activity (%)=100%×(Lumsample−LumNC)/(LumPC−LumNC). Calculate the IC50 by fitting the curve using Xlfit (v5.3.1.3), equation 201: fit=(A+((B−A)/(1+((x/C)^D)))); A: Botton; B: Top; C: IC50; and D: Slope.
The letter codes for STAT3 DC50 include: A (<0.05 μM), B (0.05-0.2 μM), C (0.2-1.0 μM), and D (>1.0 μM).
Consider `CC(=O)N1CC[C@H]2CC[C@@H](C(=O)N[C@@H](CCC(N)=O)C(=O)N[C@@H](Cc3ccc(F)c(F)c3)C(=O)N3CCC(CCCc4cccc5c4n(C)c(=O)n5C4CCC(=O)NC4=O)CC3)N2C(=O)[C@@H](NC(=O)c2cc3cc(C(=O)P(=O)(O)O)ccc3[nH]2)C1` (stereo partly drawn) [Compound I-9], for which the DC50 – broadly, the midpoint of the concentration-degradation curve – is 200 to 1000 nM. For `CC(=O)N1CC[C@H]2CC[C@@H](C(=O)N[C@@H](CCC(N)=O)C(=O)N[C@@H](Cc3ccc(F)c(F)c3)C(=O)N3CCC(CCC#Cc4ccc5c(c4)n(C)c(=O)n5C4CCC(=O)NC4=O)CC3)N2C(=O)[C@@H](NC(=O)c2cc3cc(C(=O)P(=O)(O)O)ccc3[nH]2)C1` (stereo partly drawn) [Compound I-7] the value was 200 to 1000 nM; for `CC(=O)N1CC[C@H]2CC[C@@H](C(=O)N[C@@H](CCC(N)=O)C(=O)N[C@H](C(=O)N3CCC(CCCc4ccc5c(c4)n(C)c(=O)n5C4CCC(=O)NC4=O)CC3)C3CCCCC3)N2C(=O)[C@@H](NC(=O)c2cc3cc(C(=O)P(=O)(O)O)ccc3s2)C1` (stereo partly drawn) [Compound I-30], > 1000 nM. For `COC(=O)N1CC[C@H]2CC[C@@H](C(=O)N[C@@H](CCC(N)=O)C(=O)N[C@H](C(=O)N3CCC(CCC#Cc4cccc5c4n(C)c(=O)n5C4CCC(=O)NC4=O)CC3)C3CCCCC3)N2C(=O)[C@@H](NC(=O)c2cc3cc(C(F)(F)P(=O)(O)O)ccc3s2)C1` (stereo partly drawn) [Compound I-16] the value was 200 to 1000 nM. As for `CC(=O)N1CC[C@H]2CC[C@@H](C(=O)N[C@@H](CCC(N)=O)C(=O)N[C@H](C(=O)N3CCC(CCC#Cc4cccc5c4n(C)c(=O)n5C4CCC(=O)NC4=O)CC3)C3CCCCC3)N2C(=O)[C@@H](NC(=O)c2cc3cc(C(=O)P(=O)(O)O)ccc3s2)C1` (stereo partly drawn) [Compound I-31], the figure is 50 to 200 nM. `COC(=O)N1CC[C@H]2CC[C@@H](C(=O)N[C@@H](CCC(N)=O)C(=O)N[C@@H](Cc3ccc(F)c(F)c3)C(=O)N3CCC(CCCc4ccc5c(c4)n(C)c(=O)n5C4CCC(=O)NC4=O)CC3)N2C(=O)[C@@H](NC(=O)c2cc3cc(C(F)(F)P(=O)(O)O)ccc3s2)C1` (stereo partly drawn) [Compound I-2, (2-{[(5S,8S,10aR)-8-{[(1S)-3-carbamoyl-1-{[(2S)-3-(3,4-difluorophenyl)-1-(4-{3-[1-(2,6-dioxopiperidin-3-yl)-3-methyl-2-oxo-1,3-benzodiazol-5-yl]propyl}piperidin-1-yl)-1-oxopropan-2-yl]carbamoyl}propyl]carbamoyl}-3-(methoxycarbonyl)-6-oxo-octahydropyrrolo[1,2-a][1,5]diazocin-5-yl]carbamoyl}-1-benzothiophen-5-yl)difluoromethylphosphonic acid]: the DC50 is < 50 nM. `COC(=O)N1CC[C@H]2CC[C@@H](C(=O)N[C@@H](CCC(N)=O)C(=O)N[C@@H](Cc3ccc(F)c(F)c3)C(=O)N3CCC(CCC#Cc4ccc5c(c4)n(C)c(=O)n5C4CCC(=O)NC4=O)CC3)N2C(=O)[C@@H](NC(=O)c2cc3cc(C(=O)P(=O)(O)O)ccc3[nH]2)C1` (stereo partly drawn) [Compound I-4]: the DC50 lay in the range of 200 to 1000 nM. For `CC(=O)N1CC[C@H]2CC[C@@H](C(=O)N[C@@H](CCC(N)=O)C(=O)N[C@@H](Cc3ccc(F)c(F)c3)C(=O)N3CCC(CCC#Cc4ccc5c(c4)n(C)c(=O)n5C4CCC(=O)NC4=O)CC3)N2C(=O)[C@@H](NC(=O)c2cc3cc(C(F)(F)P(=O)(O)O)ccc3s2)C1` (stereo partly drawn) [Compound I-10] the value was 50 to 200 nM; for `COC(=O)N1CC[C@H]2CC[C@@H](C(=O)N[C@@H](CCC(N)=O)C(=O)N[C@H](C(=O)N3CCC(CCC#Cc4cccc5c4n(C)c(=O)n5C4CCC(=O)NC4=O)CC3)C3CCCCC3)N2C(=O)[C@@H](NC(=O)c2cc3cc(C(=O)P(=O)(O)O)ccc3[nH]2)C1` (stereo partly drawn) [Compound I-19], 200 to 1000 nM; for `COC(=O)N1CC[C@H]2CC[C@@H](C(=O)N[C@@H](CCC(N)=O)C(=O)N[C@H](C(=O)N3CCC(CCCCc4cccc5c4n(C)c(=O)n5C4CCC(=O)NC4=O)CC3)C3CCCCC3)N2C(=O)[C@@H](NC(=O)c2cc3cc(C(=O)P(=O)(O)O)ccc3[nH]2)C1` (stereo partly drawn) [Compound I-20], 200 to 1000 nM. For `COC(=O)N1CC[C@H]2CC[C@@H](C(=O)N[C@@H](CCC(N)=O)C(=O)N[C@@H](Cc3ccc(F)c(F)c3)C(=O)N3CCC(CCCc4cccc5c4n(C)c(=O)n5C4CCC(=O)NC4=O)CC3)N2C(=O)[C@@H](NC(=O)c2cc3cc(C(F)(F)P(=O)(O)O)ccc3s2)C1` (stereo partly drawn) [Compound I-3] the value was < 50 nM; for `Cn1c(=O)n(C2CCC(=O)NC2=O)c2ccc(CCCC3CCN(C(=O)[C@H](Cc4ccc(F)c(F)c4)NC(=O)[C@H](CCC(N)=O)NC(=O)[C@@H]4CC[C@@H]5CCCC[C@H](NC(=O)c6cc7cc(C(F)(F)P(=O)(O)O)ccc7s6)C(=O)N54)CC3)cc21` (stereo partly drawn) [Compound I-11], 50 to 200 nM; for `COC(=O)N1CC[C@H]2CC[C@@H](C(=O)N[C@@H](CCC(N)=O)C(=O)N[C@@H](Cc3ccc(F)c(F)c3)C(=O)N3CCC(CCCc4cccc5c4n(C)c(=O)n5C4CCC(=O)NC4=O)CC3)N2C(=O)[C@@H](NC(=O)c2cc3cc(C(=O)P(=O)(O)O)ccc3[nH]2)C1` (stereo partly drawn) [Compound I-6], 200 to 1000 nM. With `COC(=O)N1CC[C@H]2CC[C@@H](C(=O)N[C@@H](CCC(N)=O)C(=O)N[C@@H](Cc3ccc(F)c(F)c3)C(=O)N3CCC(CCC#Cc4ccc5c(c4)n(C)c(=O)n5C4CCC(=O)NC4=O)CC3)N2C(=O)[C@@H](NC(=O)c2cc3cc(C(F)(F)P(=O)(O)O)ccc3s2)C1` (stereo partly drawn) [Compound I-1], the 50% degradation concentration (DC50) is < 50 nM.

For `CC(=O)N1CC[C@H]2CC[C@@H](C(=O)N[C@@H](CCC(N)=O)C(=O)N[C@H](C(=O)N3CCC(CCCCc4cccc5c4n(C)c(=O)n5C4CCC(=O)NC4=O)CC3)C3CCCCC3)N2C(=O)[C@@H](NC(=O)c2cc3cc(C(=O)P(=O)(O)O)ccc3s2)C1` (stereo partly drawn) [Compound I-32], the DC50 lay within 200 to 1000 nM.

On to `CC(=O)N1CC[C@H]2CC[C@@H](C(=O)N[C@@H](CCC(N)=O)C(=O)N[C@H](C(=O)N3CCC(CCC#Cc4cccc5c4n(C)c(=O)n5C4CCC(=O)NC4=O)CC3)C3CCCCC3)N2C(=O)[C@@H](NC(=O)c2cc3cc(C(=O)P(=O)(O)O)ccc3[nH]2)C1` (stereo partly drawn) [Compound I-29], for which the half-maximal degradation concentration (DC50) is > 1000 nM. As for `CC(=O)N1CC[C@H]2CC[C@@H](C(=O)N[C@@H](CCC(N)=O)C(=O)N[C@@H](Cc3ccc(F)c(F)c3)C(=O)N3CCC(CCCc4ccc5c(c4)n(C)c(=O)n5C4CCC(=O)NC4=O)CC3)N2C(=O)[C@@H](NC(=O)c2cc3cc(C(=O)P(=O)(O)O)ccc3[nH]2)C1` (stereo partly drawn) [Compound I-8], the figure is > 1000 nM. Regarding `Cn1c(=O)n(C2CCC(=O)NC2=O)c2cccc(CCCC3CCN(C(=O)[C@H](Cc4ccc(F)c(F)c4)NC(=O)[C@H](CCC(N)=O)NC(=O)N4Cc5cccc6c5C4C(=O)[C@@H](NC(=O)c4cc5cc(C(F)(F)P(=O)(O)O)ccc5s4)CC6)CC3)c21` (stereo partly drawn) [Compound I-14], the DC50 was > 1000 nM.

As to `Cn1c(=O)n(C2CCC(=O)NC2=O)c2cccc(CCCC3CCN(C(=O)[C@H](Cc4ccc(F)c(F)c4)NC(=O)[C@H](CCC(N)=O)NC(=O)N4Cc5cccc6c5C4C(=O)[C@@H](NC(=O)c4cc5cc(C(=O)P(=O)(O)O)ccc5[nH]4)CC6)CC3)c21` (stereo partly drawn) [Compound I-13], the DC50 lay in the range of 200 to 1000 nM. As for `COC(=O)N1CC[C@H]2CC[C@@H](C(=O)N[C@@H](CCC(N)=O)C(=O)N[C@H](C(=O)N3CCC(CCCc4ccc5c(c4)n(C)c(=O)n5C4CCC(=O)NC4=O)CC3)C3CCCCC3)N2C(=O)[C@@H](NC(=O)c2cc3cc(C(=O)P(=O)(O)O)ccc3[nH]2)C1` (stereo partly drawn) [Compound I-18], the figure is 200 to 1000 nM. For `Cn1c(=O)n(C2CCC(=O)NC2=O)c2ccc(CCCC3CCN(C(=O)[C@H](Cc4ccc(F)c(F)c4)NC(=O)[C@H](CCC(N)=O)NC(=O)[C@@H]4CC[C@@H]5CCCC[C@H](NC(=O)c6cc7cc(C(=O)P(=O)(O)O)ccc7[nH]6)C(=O)N54)CC3)cc21` (stereo partly drawn) [Compound I-12] the value was 200 to 1000 nM. As for `COC(=O)N1CC[C@H]2CC[C@@H](C(=O)N[C@@H](CCC(N)=O)C(=O)N[C@H](C(=O)N3CCC(CCCc4ccc5c(c4)n(C)c(=O)n5C4CCC(=O)NC4=O)CC3)C3CCCCC3)N2C(=O)[C@@H](NC(=O)c2cc3cc(C(F)(F)P(=O)(O)O)ccc3s2)C1` (stereo partly drawn) [Compound I-15], the figure is 200 to 1000 nM; as for `CC(=O)N1CC[C@H]2CC[C@@H](C(=O)N[C@@H](CCC(N)=O)C(=O)N[C@H](C(=O)N3CCC(CCCCc4cccc5c4n(C)c(=O)n5C4CCC(=O)NC4=O)CC3)C3CCCCC3)N2C(=O)[C@@H](NC(=O)c2cc3cc(C(=O)P(=O)(O)O)ccc3[nH]2)C1` (stereo partly drawn) [Compound I-27], > 1000 nM. Take `COC(=O)N1CC[C@H]2CC[C@@H](C(=O)N[C@@H](CCC(N)=O)C(=O)N[C@@H](Cc3ccc(F)c(F)c3)C(=O)N3CCC(CCCc4ccc5c(c4)n(C)c(=O)n5C4CCC(=O)NC4=O)CC3)N2C(=O)[C@@H](NC(=O)c2cc3cc(C(=O)P(=O)(O)O)ccc3[nH]2)C1` (stereo partly drawn) [Compound I-5, 2-[[(5S,8S,10aR)-8-[[(1S)-3-carbamoyl-1-[[(2S)-3-(3,4-difluorophenyl)-1-(4-[3-[1-(2,6-dioxopiperidin-3-yl)-3-methyl-2-oxo-1,3-benzodiazol-5-yl]propyl]piperidin-1-yl)-1-oxopropan-2-yl]carbamoyl]propyl]carbamoyl]-3-(methoxycarbonyl)-6-oxo-octahydropyrrolo[1,2-a][1,5]diazocin-5-yl]carbamoyl]-1H-indole-5-carbonylphosphonic acid]: the DC50 was in the range of 50 to 200 nM.
